Data: US20260226073A1 (AURIGENE ONCOLOGY LIMITED, priority 2023, published 2026)

Columns and labels:
[1] = target: T1, human recombinant CBL-b (human Biotin CBL-b recombinant protein a.a. 39-426) (Homo sapiens, UniProt Q13191); test: Biochemical assay for CBL-b inhibition (ligand displacement TR-FRET); assay type: binding; conditions: 50 nM CBL-b, 0.3 μM Bodipy FL-Probe, read-out: IC50 (CBL-b inhibition, group)
T1 construct: human Biotin CBL-b recombinant protein a.a; 39-426; Biotin (biotinylated); made in house
How it was run: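 Ligand-displacement TR-FRET: 0.3 μM Bodipy FL probe competes with compound for 50 nM biotin-CBL-b (aa 39-426) after a 60 min RT compound pre-incubation; terbium-streptavidin detection, 60 min each step. Dose-response sigmoidal fitting gave IC50 and % maximum inhibition.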

[2] = system: NFAT signaling pathway in Jurkat NFAT reporter cells; test: Jurkat NFAT reporter assay; assay type: cell-based; conditions: Homo sapiens, 30 min with compound, then soluble anti-human CD3/CD28 antibody for 6 hours, luciferase readout, read-out: EC50 (Group)
How it was run: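 Results are expressed as fold change relative to stimulated, inhibitor-free cells. Stimulation was 6 h with soluble anti-human CD3/CD28 antibody after a 30-min exposure of 1×10^5 NFAT-RE luciferase Jurkat reporter cells per well to the Cbl-b inhibitor; signal read by Bio-Glo bioluminescence.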

T1 sequence (Q13191 39-426): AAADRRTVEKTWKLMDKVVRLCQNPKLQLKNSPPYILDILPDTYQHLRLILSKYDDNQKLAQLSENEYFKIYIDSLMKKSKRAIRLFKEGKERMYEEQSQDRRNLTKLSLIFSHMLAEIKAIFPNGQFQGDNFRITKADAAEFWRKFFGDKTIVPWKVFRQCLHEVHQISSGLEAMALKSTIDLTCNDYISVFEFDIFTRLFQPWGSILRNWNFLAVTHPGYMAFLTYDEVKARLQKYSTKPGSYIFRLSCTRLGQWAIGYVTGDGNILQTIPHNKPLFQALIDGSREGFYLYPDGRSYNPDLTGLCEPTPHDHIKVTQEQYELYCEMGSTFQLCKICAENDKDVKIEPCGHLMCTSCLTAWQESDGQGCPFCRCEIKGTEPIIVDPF

Structure (SMILES) | IC50 [1] [µM] | EC50 [2] [µM]
Cc1cc(CNCC2CC2)cc(N2Cc3c(cc(-c4ccc(F)cc4-c4nncn4C)cc3C(F)(F)F)C2=O)n1 [Compound 256, 2-(4-(((Cyclopropylmethyl)amino)methyl)-6-methylpyridin-2-yl)-6-(4-fluoro-2-(4-methyl-4H-1,2,4-triazol-3-yl)phenyl)-4-(trifluoromethyl)isoindolin-1-one] | < 0.08 | 1 to 10
Cc1cc(CN2CCC3(CC3)C2)cc(N2Cc3ccc(-c4ccc(F)cc4-c4nncn4C)cc3C2=O)n1 [Compound 259] | < 0.08 | 1 to 10
Cc1cc(CNCC2CC(F)(F)C2)cc(N2Cc3ccc(-c4ccc(F)cc4-c4nncn4C)cc3C2=O)n1 [Compound 260, 2-(4-((((3,3-Difluorocyclobutyl)methyl)amino)methyl)-6-methylpyridin-2-yl)-6-(4-fluoro-2-(4-methyl-4H-1,2,4-triazol-3-yl)phenyl)isoindolin-1-one] | < 0.08 | < 0.3
Cc1nc(N2Cc3ccc(-c4ccc(F)cc4-c4nncn4C)cc3C2=O)cc(CNCC2CC2)c1F [Compound 261, 2-(4-(((Cyclopropylmethyl)amino)methyl)-5-fluoro-6-methylpyridin-2-yl)-6-(4-fluoro-2-(4-methyl-4H-1,2,4-triazol-3-yl)phenyl)isoindolin-1-one] | < 0.08 | 1 to 10
Cc1cc(CNCC2CC2)cc(N2Cc3ccc(-c4c(F)cc(F)cc4-c4nncn4C)cc3C2=O)n1 [Compound 262] | < 0.08 | < 0.3
Cc1cc(CNCC2CC2)cc(N2Cc3ccc(-c4ncc(Cl)cc4-c4nncn4C)cc3C2=O)n1 [Compound 263, 6-(5-Chloro-3-(4-methyl-4H-1,2,4-triazol-3-yl)pyridin-2-yl)-2-(4-(((cyclo-propylmethyl)amino)methyl)-6-methylpyridin-2-yl)isoindolin-1-one] | < 0.08 | 1 to 10
Cn1cnnc1-c1cc(F)ccc1-c1ccc2c(c1)C(=O)N(c1cc(CNCC3CC3)cc(C(F)(F)F)n1)C2 [Compound 265, 2-(4-(((Cyclopropylmethyl)amino)methyl)-6-(trifluoromethyl)pyridin-2-yl)-6-(4-fluoro-2-(4-methyl-4H-1,2,4-triazol-3-yl)phenyl)isoindolin-1-one] | < 0.08 | < 0.3
Cc1cc(CNCC2CC2(F)F)cc(N2Cc3ccc(-c4ccc(Cl)cc4-c4nncn4C)cc3C2=O)n1 (stereo not drawn) [Compound 269] | < 0.08 | 0.3 to 1
COc1ccc(-c2ccc3c(c2)C(=O)N(c2cc(CNCC4CC4)cc(C)n2)C3)c(-c2nncn2C)c1 [Compound 273, 2-(4-(((Cyclopropylmethyl)amino)methyl)-6-methylpyridin-2-yl)-6-(4-methoxy-2-(4-methyl-4H-1,2,4-triazol-3-yl)phenyl)isoindolin-1-one] | < 0.08 | 1 to 10
Cc1cc(CNCC2CCC2)cc(N2Cc3ccc(-c4ccc(Cl)cc4-c4nncn4C)cc3C2=O)n1 [Compound 274, 6-(4-Chloro-2-(4-methyl-4H-1,2,4-triazol-3-yl)phenyl)-2-(4-(((cyclobutyl-methyl)amino)methyl)-6-methylpyridin-2-yl)isoindolin-1-one] | < 0.08 | < 0.3
Cn1cnnc1-c1cc(Cl)ccc1-c1ccc2c(c1)C(=O)N(c1cc(C(C)(C)NCC3CC3)cc(Cl)n1)C2 [Compound 275, 6-(4-Chloro-2-(4-methyl-4H-1,2,4-triazol-3-yl)phenyl)-2-(6-chloro-4-(2-((cyclopropylmethyl)amino)propan-2-yl)pyridin-2-yl)isoindolin-1-one] | < 0.08 | < 0.3
Cc1ccc(-c2ccc3c(c2)C(=O)N(c2cc(CNCC4CC4)cc(C)n2)C3)c(-c2nncn2C)c1 [Compound 277, 2-(4-(((Cyclopropylmethyl)amino)methyl)-6-methylpyridin-2-yl)-6-(4-methyl-2-(4-methyl-4H-1,2,4-triazol-3-yl)phenyl)isoindolin-1-one] | < 0.08 | 1 to 10
Cc1cc(C(C)NCC2CCC2)cc(N2Cc3ccc(-c4ccc(Cl)cc4-c4nncn4C)cc3C2=O)n1 (stereo not drawn) [Compound 278, 6-(4-Chloro-2-(4-methyl-4H-1,2,4-triazol-3-yl)phenyl)-2-(4-(1-((cyclobutyl-methyl)amino)ethyl)-6-methylpyridin-2-yl)isoindolin-1-one] | < 0.08 | < 0.3
Cc1cc(CNCC2CC(F)(F)C2)cc(N2Cc3ccc(-c4ccc(Cl)cc4-c4nncn4C)cc3C2=O)n1 [Compound 279, 6-(4-Chloro-2-(4-methyl-4H-1,2,4-triazol-3-yl)phenyl)-2-(4-((((3,3-difluoro-cyclobutyl)methyl)amino)methyl)-6-methylpyridin-2-yl)isoindolin-1-one] | < 0.08 | < 0.3
Cc1cc(CNCC2CC2)cc(N2Cc3ccc(-c4ccc(Cl)cc4-c4nncn4C)cc3C2=O)c1 [Compound 280, 6-(4-Chloro-2-(4-methyl-4H-1,2,4-triazol-3-yl)phenyl)-2-(3-(((cyclopropyl-methyl)amino)methyl)-5-methylphenyl)isoindolin-1-one] | < 0.08 | 0.3 to 1
Cc1cc(C(C)NCC2CC(F)(F)C2)cc(N2Cc3ccc(-c4ccc(Cl)cc4-c4nncn4C)cc3C2=O)n1 (stereo not drawn) [Compound 281, 6-(4-Chloro-2-(4-methyl-4H-1,2,4-triazol-3-yl)phenyl)-2-(4-(1-(((3,3-difluoro-cyclobutyl)methyl)amino)ethyl)-6-methylpyridin-2-yl)isoindolin-1-one] | < 0.08 | < 0.3
Cc1cc(C(C)NCC2CC2)cc(N2Cc3ccc(-c4ccc(F)cc4-c4nncn4C)cc3C2=O)n1 (stereo not drawn) [Compound 282, 2-(4-(1-((Cyclopropylmethyl)amino)ethyl)-6-methylpyridin-2-yl)-6-(4-fluoro-2-(4-methyl-4H-1,2,4-triazol-3-yl)phenyl)isoindolin-1-one] | < 0.08 | < 0.3
Cc1cc(C(C)(C)NCC2CC2)cc(N2Cc3ccc(-c4ccc(F)cc4-c4nncn4C)cc3C2=O)n1 [Compound 293, 2-(4-(2-((Cyclopropylmethyl)amino)propan-2-yl)-6-methylpyridin-2-yl)-6-(4-fluoro-2-(4-methyl-4H-1,2,4-triazol-3-yl)phenyl)isoindolin-1-one] | < 0.08 | 0.3 to 1
CCn1cnnc1-c1cc(F)ccc1-c1ccc2c(c1)C(=O)N(c1cc(CNCC3CC3)cc(C)n1)C2 [Compound 294, 2-(4-(((Cyclopropylmethyl)amino)methyl)-6-methylpyridin-2-yl)-6-(2-(4-ethyl-4H-1,2,4-triazol-3-yl)-4-fluorophenyl)isoindolin-1-one] | < 0.08 | 1 to 10
CCC(C)NCc1cc(C)nc(N2Cc3ccc(-c4ccc(F)cc4-c4nncn4C)cc3C2=O)c1 (stereo not drawn) [Compound 295, 2-(4-((sec-Butylamino)methyl)-6-methylpyridin-2-yl)-6-(4-fluoro-2-(4-methyl-4H-1,2,4-triazol-3-yl)phenyl)isoindolin-1-one] | < 0.08 | < 0.3
Cc1cc(CNCC2CC2)cc(N2Cc3c(F)cc(-c4ccc(F)cc4-c4nncn4C)cc3C2=O)n1 [Compound 296] | < 0.08 | 1 to 10
